Results published in EP4541815A1, “ANTIBODY AGAINST HEPATITIS B VIRUS, PREPARATION THEREOF AND USE THEREOF” (priority 2022, dated 2023).

Test system: HBV D genotype
Experiment: Antiviral activity in HBV-infected liver-humanized chimeric hFRG mouse model, plasma HBV DNA by qPCR
Type: in vivo
Details: hFRG mice
Protocol: To investigate the therapeutic efficacy of afuco-A14 GA LS against established HBV infection, the efficacy of afuco-A14 GA LS administered alone and in combination with entecavir, was evaluated in a liver-humanized chimeric hFRG (Fah^-/- Rag2^-/- /IL2rg^-/-) mouse model. Entecavir is a hepatitis B virus reverse transcriptase inhibitor that treats hepatitis B by inhibiting viral replication. The disadvantage of entecavir is the rebound of viral replication upon discontinuation of treatment.
A control group (saline), an afuco-A14 GA LS monotherapy group (10 mg/kg), an entecavir (ETV) monotherapy group (ETV, 0.1 mg/kg), and a combination therapy group of afuco-A14 GA LS (10 mg/kg) and entecavir (0.1 mg/kg) were set up in the experiment, respectively. Mice were administered (afuco-A14 GALS was administered subcutaneously and ETV was administered orally) starting on day 28 (D28) post HBV infection (HBV D genotype, 2 × 10^9 GE/mouse). Thereafter, afuco-A14 GA LS was administered subcutaneously once a week (D35, D42, D49, D56, D63, and D70), while ETV was administered once a day until D70. The observation period continued after discontinuation until D91.
Plasma from experimental mice was collected by venous blood sampling, and then qPCR was used to quantitatively detect the level of HBV DNA in the plasma of the mice. […]

Structure (SMILES): C=C1[C@H](CO)[C@@H](O)C[C@@H]1n1cnc2c(=O)[nH]c(N)nc21 [ETV, entecavir]
- reduction of mean viral titre at the end of the study (D91) compared to the starting point of treatment (D28) (21 days post-discontinuation, afuco-A14 GA LS 10 mg/kg s.c., ETV 0.1 mg/kg oral): 7.15 fold
- decrease of viral DNA levels at the final dose (D70) (treatment D28 to D70, afuco-A14 GA LS 10 mg/kg s.c. once a week, ETV 0.1 mg/kg oral once a day, compared to control group (saline)): ~436 fold
